This is an account of results in article PMC12096674 (Journal of Enzyme Inhibition and Medicinal Chemistry, 2025).

A word on the IC50: it is the concentration at which inhibition is half-maximal.

The subject of assay [1] is M^pro of four alpha-CoVs. Particulars: read-out: IC50 values against all four alpha-CoVs.
The subject of assay [2] is M^pro of ten high-risk CoVs.
Assay [3] deals with HCoV-HKU1 M^pro. Particulars: read-out: IC50 HCoV-HKU1; cited from earlier work.
Assay [4] deals with HCoV-OC43 M^pro. Particulars: read-out: IC50 HCoV-OC43, cited from earlier work.
For assay [5], the system named is HCoV-NL63 M^pro. Particulars: read-out: IC50 HCoV-NL63, cited from earlier work.

Read-outs that look alike come from different tables or passages of the source.

Regarding `Cn1cnc(Cn2c(=O)[nH]/c(=N\c3cc4cn(C)nc4cc3Cl)n(Cc3cc(Cl)c(F)cc3Oc3ncc(C(F)(F)F)s3)c2=O)n1` [Compound 14, (E)-6-((6-chloro-2-methyl-2H-indazol-5-yl)imino)-1-(5-chloro-4-fluoro-2-((5-(trifluoromethyl)thiazol-2-yl)oxy)benzyl)-3-((1-methyl-1H-1,2,4-triazol-3-yl)methyl)-1,3,5-triazinane-2,4-dione], in assay [1], the 50% inhibitory concentration (IC50) was less than 300 nM.

`Cc1cncc(-n2c(=O)[nH]/c(=N\c3cc4cn(C)nc4cc3Cl)n(Cc3cc(C#N)ccc3Sc3ccc(Cl)s3)c2=O)c1` [Compound 24, (E)-3-((6-((6-Chloro-2-methyl-2H-indazol-5-yl)imino)-3-(5-methylpyridin-3-yl)-2,4-dioxo-1,3,5-triazinan-1-yl)methyl)-4-((5-chlorothiophen-2-yl)thio)benzonitrile]: the half-inhibitory concentration (IC50) in assay [1] was less than 300 nM.

Regarding `Cn1cc2cc(/N=c3\[nH]c(=O)n(Cc4ccc[nH]c4=O)c(=O)n3Cc3cc(Cl)c(F)cc3Oc3ccc(C#N)s3)c(Cl)cc2n1` [Compound 25, (E)-5-(4-chloro-2-((6-((6-chloro-2-methyl-2H-indazol-5-yl)imino)-2,4-dioxo-3-((2-oxo-1,2-dihydropyridin-3-yl)methyl)-1,3,5-triazinan-1-yl)methyl)-5-fluoro-phenoxy)thiophene-2-carbonitrile], the IC50 in assay [1] was less than 600 nM; in assay [2] (read-out: IC50 against ten high-risk CoVs) it was less than 600 nM; in assay [2] (read-out: IC50 values for six of the ten CoVs) it was less than 100 nM.

Take `CC(C)(C)[C@H](NC(=O)C(F)(F)F)C(=O)N1C[C@H]2[C@@H]([C@H]1C(=O)N[C@H](C#N)C[C@@H]1CCNC1=O)C2(C)C` [PF-07321332, Nirmatrelvir]: the IC50 in assay [3] is […]; in assay [4], […]; in assay [5], […].

For `Cn1cnc(Cn2c(=O)[nH]/c(=N\c3cc4cn(C)nc4cc3Cl)n(Cc3cc(F)c(F)cc3F)c2=O)n1` [S-217622 (1)], the results for the 50% inhibitory concentration (IC50) in assay [3], in assay [4] (reported compound) and in assay [5] (reported compound) were […], […] and […], respectively.
